Our source for the activation and IC50 values is patent publication US20250066389A1, “HETEROCYCLIC AMIDES AND METHODS OF USING THE SAME” (Rgenta Therapeutics, Inc., priority 2021, published 2025).

Where a name gives a salt, the structure may show the parent alone.

The first test relates to PMS1. Nature of the test: Mini-Gene Reporter Assay—PMS1 (firefly luciferase mini-gene reporter transiently transfected into HEK293 cells). In kind it is cell-based. To be noted: Homo sapiens; at 5 uM; mini-gene firefly luciferase reporter in HEK293 cells; read-out: PMS1 % Effect at 5 uM. From the text:
Example 76. Mini-Gene Reporter Assay—PMS1
Mini-gene reporter constructs for each target site can be constructed by first PCR amplifying the region-of-interest including the sequence of the alternatively skipped, sequences of the immediate upstream and downstream introns, and sequences of the immediate upstream and downstream exons. Then the 3′ end of the amplified sequence can be ligated to a firefly luciferase reporter gene and cloned into the pcDNA3.1 vector backbone. The final reporter construct can be transiently transfected into HEK293 cells using Lipofectamine 3000 transfection reagents. Compounds that can induce the inclusion of the skipped exon in the reporter construct would increase the reporter firefly luciferase activity.
Test compounds may be diluted in duplicates and dispensed into an assay plate. Transient mini-gene reporter cell line stock is resuspended and dispensed into the assay plate. Assay plates are then centrifuged and incubated. A luciferase reagent (e.g. ONE-Glo firefly luciferase reagent from Promega®) may be added to the assay plate and the luminescence (RLU) signals recorded. EC50 values may be determined by curve fitting in Levenberg-Marquardt algorithm.
In Table D below, A indicates a IC50 (μM)<1 μM, B indicates a IC50 (μM) 1 μM to <10 μM, and C indicates a IC50 (μM) 10 μM to <50 μM. In Table D below, A indicates a >75% Effect at 5 μM μM. B indicates a 50 to <75% Effect at 5 μM μM, and C indicates a <50% Effect at 5 μM.
Take `CCOc1cn2nc(C)cc2cc1C(=O)Nc1cnc(N2CCC(C3(O)CCNCC3)CC2)cn1` [Compound 505]: the activation at 5 µM was in the range of 50 to 75%.
Take `CCOc1cc2nn(C)cc2cc1C(=O)Nc1cnc(NCC2=CCNCC2)nc1` [Compound 426]: the activation at 5 µM is below 50%.
As for `CCOc1cn2nc(C)cc2cc1C(=O)Nc1cnc(N2CCN(CC3CCCNC3)CC2)cn1` (centres unmarked) [Compound 524], the activation at 5 µM is below 50%.
The same measure, in the same setting: in the case of `CCOc1cc2nn(C)cc2cc1C(=O)Nc1cnc(NCC2CCCNC2)cn1` (centres unmarked) [Compound 378] it was below 50%; in that of `CCOc1cc2nn(C)cc2cc1C(=O)Nc1cnc(NCc2cc3n(n2)CCNC3)nc1` [Compound 393], below 50%; in that of `CCOc1cc2nc(C)cn2cc1C(=O)Nc1ccc(N2CC[C@H](NC)C2)nn1` (single isomer, unassigned) [Compound 706], above 75%.
For the compound `CCNC1CCCN(c2ccc(NC(=O)c3cn4cc(C)nc4cc3OC)c(F)c2)C1` (centres unmarked) [Compound 151, N-(4-(3-(ethylamino)piperidin-1-yl)-2-fluorophenyl)-7-methoxy-2-methylimidazo[1,2-a]pyridine-6-carboxamide], the activation at 5 µM was below 50%.
With `CCOc1cn2nc(C)cc2cc1C(=O)Nc1cnc(N2CCCC(CCC3CCCNC3)C2)nc1` (centres unmarked) [Compound 603], the activation at 5 µM was below 50%.
The same measure, in the same setting: in the case of `CCOc1cc2nn(C)cc2cc1C(=O)Nc1cnc(N2CCC(N)(c3cccc(F)c3)C2)nc1` (centres unmarked) [Compound 418] it was below 50%.
On to `CCOc1cc2nn(C)cc2cc1C(=O)Nc1cnc(N(C)CCN2CCNCC2)nc1` [Compound 448], for which the activation at 5 µM was below 50%.
On the same count and under the same terms, in the case of `CCOc1cn2nc(C)cc2cc1C(=O)Nc1cnc(N2CCCNCC2)cn1` [Compound 561] it was above 75%; in that of `COc1cc2nn(C)cc2cc1C(=O)Nc1ccc(N2CC3CNCC3C2)cc1F` (centres unmarked) [Compound 117, N-(2-fluoro-4-(hexahydropyrrolo[3,4-c]pyrrol-2(1H)-yl)phenyl)-6-methoxy-2-methyl-2H-indazole-5-carboxamide], below 50%; in that of `CCOc1cc2nn(C)cc2cc1C(=O)Nc1cnc(NC[C@@H]2CCCN2)nc1` [Compound 470], below 50%.
In the case of `CCOc1cc2nn(C)cc2cc1C(=O)Nc1cnc(NC2CCNCC2C)cn1` (centres unmarked) [Compound 348], the activation at 5 µM lay in the range of 50 to 75%.
For `CCOc1cc2nc(C)cn2cc1C(=O)Nc1cnc(N2C[C@@H](F)C[C@H]2CN)cn1` [Compound 672], the activation at 5 µM lay within 50 to 75%.
On the same count and under the same terms, in the case of `CCOc1cc2nn(C)cc2cc1C(=O)Nc1cnc(NC2CCCNC2)cn1` (centres unmarked) [Compound 375] it was 50 to 75%.
As for `CCOc1cc2nn(C)cc2cc1C(=O)Nc1cnc(N2CCC3(CCNCC3)C2)cn1` [Compound 352], the activation at 5 µM is above 75%.
With `CCOc1cn2nc(C)cc2cc1C(=O)Nc1cnc(N2CCC(n3ncc4c3CNC4)CC2)cn1` [Compound 507], the activation at 5 µM is below 50%.
For the compound `CCOc1cn2nc(C)cc2cc1C(=O)Nc1cnc(N2CC(N)C2)nc1` [Compound 595], the activation at 5 µM is below 50%.
Turning to `CCOc1cc2nn(C)cc2cc1C(=O)Nc1cnc(NCc2nn(C)c3c2CNCC3)nc1` [Compound 388], the activation at 5 µM is below 50%.
In the case of `CCOc1cc2nn(C)cc2cc1C(=O)Nc1cnc(NC2CC3NCCOC3C2)nc1` (centres unmarked) [Compound 399], the activation at 5 µM was below 50%.
`CCOc1cc2nn(C)cc2cc1C(=O)Nc1cnc(N2CCC3(CCCN3)CC2)nc1` [Compound 442]: the activation at 5 µM is above 75%.
With `CCOc1cc2nc(C)cn2cc1C(=O)Nc1cnc(N2CCC3(CCNCC3)C2)cn1` [Compound 685], the activation at 5 µM lay within 50 to 75%.
Consider `CCOc1cc2nc(C)cn2cc1C(=O)Nc1cnc(N2CC(C)NCC2C)nc1` (centres unmarked) [Compound 644], for which the activation at 5 µM fell in the range of 50 to 75%.
Same read-out and setting: in the case of `CCOc1cc2nn(C)cc2cc1C(=O)Nc1ccc(C2=CC(C)NCC2)nn1` (centres unmarked) [Compound 752, 6-ethoxy-2-methyl-N-(6-(6-methyl-1,2,3,6-tetrahydropyridin-4-yl)pyridazin-3-yl)-2H-indazole-5-carboxamide] it was above 75%; in that of `CCOc1cc2nn(C)cc2cc1C(=O)Nc1cnc(NCC2CCNCC2(F)F)nc1` (centres unmarked) [Compound 431], below 50%; in that of `CCOc1cc2nc(C)cn2cc1C(=O)Nc1cnc(N2CC(N)C3(CC3)C2)cn1` (centres unmarked) [Compound 678], above 75%.
Same read-out and setting: for `COc1cc2nc(C)cn2cc1C(=O)Nc1ccc(N(C)C2CCNCC2)cc1F` [Compound 169, N-(2-fluoro-4-(methyl(piperidin-4-yl)amino)phenyl)-7-methoxy-2-methylimidazo[1,2-a]pyridine-6-carboxamide] the value was 50 to 75%; for `COc1cc2nc(C)cn2cc1C(=O)Nc1ccc(N2C3CCCC2CNC3)cc1F` [Compound 140, N-(4-(3,9-diazabicyclo[3.3.1]nonan-9-yl)-2-fluorophenyl)-7-methoxy-2-methylimidazo[1,2-a]pyridine-6-carboxamide], above 75%.
Same read-out and setting: for `CCOc1cc2nn(C)cc2cc1C(=O)Nc1cnc(NC2CCC23CNC3)nc1` (centres unmarked) [Compound 383] the value was below 50%; for `CCOc1cc2nn(C)cc2cc1C(=O)Nc1cnc(N2CCOC3(CCNCC3)C2)nc1` [Compound 459], below 50%.
As to `COc1cc2nc(C)cn2cc1C(=O)Nc1ccc(N2CCNCC(O)C2)cc1F` (centres unmarked) [Compound 153, N-(2-fluoro-4-(6-hydroxy-1,4-diazepan-1-yl)phenyl)-7-methoxy-2-methylimidazo[1,2-a]pyridine-6-carboxamide], the activation at 5 µM was below 50%.
Still for that read-out and setting: in the case of `COc1cc2nc(C)cn2cc1C(=O)Nc1ccc(N2C[C@H]3CNC[C@H]3C2)cc1F` [Compound 161, N-(2-fluoro-4-((3aR,6aS)-hexahydropyrrolo[3,4-c]pyrrol-2(1H)-yl)phenyl)-7-methoxy-2-methylimidazo[1,2-a]pyridine-6-carboxamide] it was above 75%; in that of `CCOc1cc2nn(C)cc2cc1C(=O)Nc1cnc(N2CC(O)(C3CCCN3)C2)cn1` (centres unmarked) [Compound 309], above 75%.

The test is the same for the next values; noted with them: Homo sapiens; mini-gene firefly luciferase reporter in HEK293 cells.
In the case of `COc1cc2nc(C)cn2cc1C(=O)Nc1ccc(N2CCC3(CCCN3)CC2)cc1F` [Compound 132, N-(2-fluoro-4-(1,8-diazaspiro[4.5]decan-8-yl)phenyl)-7-methoxy-2-methylimidazo[1,2-a]pyridine-6-carboxamide], the concentration for half-maximal inhibition (IC50) is below 1000 nM.
`CCOc1cc2nc(C)cn2cc1C(=O)Nc1ccc(N2CCC3CCCC(C2)N3)nn1` (centres unmarked) [Compound 236]: the IC50 was in the range of 1000 to 10000 nM.
On the same count and under the same terms, in the case of `CCOc1nc2nn(C)cc2cc1C(=O)Nc1ccc(N2CCN[C@@H](C)C2)nn1` [Compound 225, (S)-6-ethoxy-2-methyl-N-(6-(3-methylpiperazin-1-yl)pyridazin-3-yl)-2H-pyrazolo[3,4-b]pyridine-5-carboxamide hydrochloride] it was below 1000 nM; in that of `CCOc1cc2nc(C)cn2cc1C(=O)Nc1ccc(N2CC3(CC(NC)CO3)C2)nn1` (centres unmarked) [Compound 296], 1000 to 10000 nM; in that of `COc1cc2nc(C)cn2cc1C(=O)Nc1cnc(N2CCN[C@@H](C)C2)cn1` [Compound 198, (S)-7-methoxy-2-methyl-N-(5-(3-methylpiperazin-1-yl)pyrazin-2-yl)imidazo[1,2-a]pyridine-6-carboxamide hydrochloride], below 1000 nM.
In the case of `CCOc1cc2nc(C)cn2cc1C(=O)Nc1ccc(N2CCC(CNC(C)C)CC2)nn1` [Compound 232], the concentration for half-maximal inhibition (IC50) lay in the range of 1000 to 10000 nM.
Turning to `CCOc1cc2nc(C)cn2cc1C(=O)Nc1ccc(N2CCC3(CNC3)C2)nn1` [Compound 271], the concentration for half-maximal inhibition (IC50) was in the range of 1000 to 10000 nM.
Take `CCOc1nc2nc(C)cn2cc1C(=O)Nc1ccc(N2CCN(C)CC2)nn1` [Compound 731, 7-ethoxy-2-methyl-N-(6-(4-methylpiperazin-1-yl)pyridazin-3-yl)imidazo[1,2-a]pyrimidine-6-carboxamide formic acid]: the half-inhibitory concentration (IC50) lay in the range of 1000 to 10000 nM.
For the compound `CCOc1cc2nc(C)cn2cc1C(=O)Nc1ccc(N2CC3C4CCC(NC4)C3C2)nn1` (centres unmarked) [Compound 235], the IC50 lay in the range of 1000 to 10000 nM.
With `CCOc1cc2nn(C)cc2cc1C(=O)Nc1ccc(N2CCN(CC)[C@@H](C)C2)nn1` [Compound 300, (S)-6-ethoxy-N-(6-(4-ethyl-3-methylpiperazin-1-yl)pyridazin-3-yl)-2-methyl-2H-indazole-5-carboxamide hydrochloride], the concentration for half-maximal inhibition (IC50) was in the range of 1000 to 10000 nM.
Consider `COc1cc2nc(C)cn2cc1C(=O)Nc1ccc(N2CCNCC2)nc1` [Compound 119, 7-methoxy-2-methyl-N-[6-(piperazin-1-yl)pyridin-3-yl]imidazo[1,2-a]pyridine-6-carboxamide], for which the concentration for half-maximal inhibition (IC50) fell in the range of 1000 to 10000 nM.
On the same count and under the same terms, for `CCOc1cc2nc(C)cn2cc1C(=O)Nc1ccc(N2CCNC3(CC3)C2)cc1F` [Compound 704, N-(4-4,7-diazaspiro[2.5]octan-7-yl-2-fluorophenyl)-7-ethoxy-2-methylimidazo[1,2-a]pyridine-6-carboxamide] the value was below 1000 nM; for `Cc1cn2cc(C(=O)Nc3ccc(N4CCN[C@@H](C)C4)nn3)c(O[C@@H]3CCOC3)cc2n1` [Compound 212, 2-methyl-N-(6-((S)-3-methylpiperazin-1-yl)pyridazin-3-yl)-7-((tetrahydrofuran-3-yl)oxy)imidazo[1,2-a]pyridine-6-carboxamide], 1000 to 10000 nM.

The term IC50 denotes the point on the concentration scale where inhibition reaches its midpoint. A high value points to lower potency.
